Several values for one entry are separate records, joined by “and”; a condition that tells them apart may be missing. Equal entries are not always repeated. Entries after “also recorded” stand apart in the source; their conditions may differ.
Legend:
OSM = target: T1, OSM (Homo sapiens, UniProt P13725); experiment: Fluorescence quenching assay of SMI binding to OSM; details: average of three independent replicates, errors at 95% confidence level, read-out: KD (OSM-SMI dissociation constant)
T1 sequence (P13725 26-252): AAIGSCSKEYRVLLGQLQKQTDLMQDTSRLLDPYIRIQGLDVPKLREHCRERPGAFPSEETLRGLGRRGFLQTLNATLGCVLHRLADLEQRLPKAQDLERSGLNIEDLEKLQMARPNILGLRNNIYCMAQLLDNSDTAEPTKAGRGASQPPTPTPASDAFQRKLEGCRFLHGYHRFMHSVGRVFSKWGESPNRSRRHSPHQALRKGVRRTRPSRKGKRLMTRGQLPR
Experimental: To perform fluorescence quenching assays, 2 mL of 1 μM OSM solution in polymethylmethacrylate cuvettes was prepared by dilution of a concentrated stock solution of recombinant OSM with buffer solution (100 mM sodium chloride, 50 mM sodium phosphate, 50 mM freshly added DTT, pH = 6.6). Cuvettes were titrated with 5 μL increments of a 1 mM small molecule stock solution in DMSO, with a cuvette titrated with an equivalent volume of DMSO as a control. […] In cases where little to no significant quenching was observed, the titration was supplemented with 2.5 μL increments of a 10 mM small molecule stock solution to increase the concentration delivered. The fluorescence intensity measurements were obtained on a Cary Eclipse spectrofluorometer equipped with a Xenon arc lamp. Fluorescence intensities were measured by exciting at 280 nm (4 nm slit width) and recording the emission from 345 to 355 nm with a photomultiplier tube voltage of 700 V, unless otherwise noted. Each titration point was normalized to OSM’s native fluorescence intensity, corrected by adding the decrease in fluorescence intensity caused by dilution with DMSO, and the average value of the three replicates for each point was plotted against concentration of small molecule delivered and fit to a modified Stern–Volmer function as described by Charlier and Plapp. Binding affinity (K D) values were obtained […] from the fitting routine. All curve-fitting analysis was performed in GraphPad Prism 8.0.

[1] = test system: OSM-induced pSTAT3 in T47D human breast cancer cells; experiment: pSTAT3 ELISA in T47D cells treated with OSM ± SMI; type: cell-based; details: T47D; SMI 10 μM + OSM 10 ng/mL, 30 min; ELISA; relative to +OSM, no-treatment blank subtracted
Experimental: To test the effect of SMIs in vitro, each SMI was incubated with OSM for a period of 1 h at 37 °C, and T47D and MDA-MB-231 human breast cancer cell lines were subsequently treated with OSM (10 ng/mL) and/or SMI-10 (10 μM) analogs for 30 min and measured for pSTAT3 levels via ELISA. The results of these assays are presented graphically in Figure and, for T47D cells, in Table as a percentage of reduction from +OSM alone. For phospho-STAT3 (pSTAT3) ELISAs, T47D MDA-MB-231, and MCF-7 cells were seeded in 12- or 24-well plates at 70–75% confluency and allowed to adhere overnight, after which cells were serum-starved with serum-free RPMI-1640 for 4 h. SMIs (10 μM in DMSO or serially diluted to specified concentrations from a 100 mM stock in DMSO) and human recombinant OSM (10 ng/mL; PeproTech; #300–10T-10UG) were incubated in serum-free RPMI-1640 medium for 1 h. After incubation, the SMI-10 analogs or SMI-10B13 and OSM were added to the serum-starved cells for 30 min. Immediately afterward, the cells were lysed using 1x PathScan Sandwich ELISA Lysis Buffer (Cell Signaling Technology; #7018S), collected, and stored at −20 °C. Lysates were analyzed for pSTAT3 levels using either the PathScan Phospho-STAT3 (Tyr705) Sandwich ELISA Antibody Pair kit (Cell Signaling Technology; #7146) or Human/Mouse Phospho-STAT3 (Y705) DuoSet IC ELISA (R&D Systems; DYC4607B), according to manufacture’s protocol. pSTAT3 expression was measured with absorbance at 450 nm and quantified by comparison relative to OSM-induced pSTAT3 levels. To calculate an IC50 for SMI-10B13, a standard curve was generated as described in the DuoSet IC ELISA datasheet to determine the concentration of pSTAT3.

[2] = test system: OSM-mediated signaling (pSTAT3, pAKT, pJNK, pERK) in T47D cells; experiment: Immunoblot of OSM-mediated signaling in T47D cells; type: cell-based, human; details: SMI 10 μM, OSM 10 ng/mL, 30 min
Experimental: For immunoblot analysis, T47D breast cancer cells were treated and collected in the same manner as described above for the ELISA preparation. After lysate collection, samples were run on a 10% SDS-PAGE gel and transferred to a nitrocellulose membrane via semidry transfer. Blots were rinsed with DI H2O and allowed to completely dry at room temperature before blocking with LiCor Intercept PBS Blocking Buffer (LiCor, Lincoln, NE; Cat# 927-90001) for 1 h. After blocking, primary antibodies (1:1000) suspended in blocking buffer supplemented with 0.1% Tween were added, shaken at room temperature for 1 h, and stored at 4 °C overnight. Membranes were then washed 6 times for 5 minutes each with 1X PBS supplemented with 0.5% Tween while shaking at room temperature, and secondary antibodies (1:15,000) were applied and incubated for 1 h. Afterward, membranes were washed as previously described above and imaged at 700 nm using the LiCor Odyssey CLx Imaging System. Quantification of immunoblots was performed using the LiCor Image Studio software, normalizing to β-Actin, and calculating relative fold change compared to nontreated samples. Antibodies used included phospho-STAT3 (Y705) (Cell Signaling Technology, Danvers, MA; cat. no. 9145), phospho-AKT (S473) (Cell Signaling Technology, Danvers, MA; cat. no. 4060), phospho-JNK ([…]/[…]) (Cell Signaling Technology, Danvers, MA; cat. no. 4668), phospho-ERK (T202/Y204) (Cell Signaling Technology, Danvers, MA; cat. no. 9101), β-Actin (Cell Signaling Technology; cat. no. 3700), and donkey antirabbit IRDye 800CW (LiCor, Lincoln, NE; Cat# 925-32213).

Kd (OSM)	SMILES	Relative pSTAT3 Levels (Table 2, SMI-10B analogs) [1]	Relative pSTAT3 Levels (Table 1, SMI-10A-10J) [1]	Inhibition of OSM-mediated signaling cascades by immunoblot (words) [2]	Inhibition of OSM-mediated signaling cascades by immunoblot (words) ([2]; listed as 10B8)
34.5 ± 6.9 µM	COc1ccc(-c2cc(CCC(=O)O)oc2-c2ccc3c(c2)OCO3)cc1 [SMI-10B17, 3-(5-(Benzo[d][1,3]dioxol-5-yl)-4-(4-methoxyphenyl)furan-2-yl)propanoic acid]	86.51%	–	–	–
16.5 ± 5.2 µM	O=C(O)CCc1cc(-c2cncnc2)c(-c2ccc3c(c2)OCO3)o1 [SMI-10B16, 3-(5-(Benzo[d][1,3]dioxol-5-yl)-4-(pyrimidin-5-yl)furan-2-yl)propanoic Acid]	41.62%	–	–	–
30.5 ± 2.1 µM	O=C(NCc1ccccc1)c1cc(-c2ccc3c(c2)OCO3)c(-c2ccc3c(c2)OCO3)o1 [SMI-10J, 4,5-Bis(benzo[d][1,3]dioxol-5-yl)-N-benzylfuran-2-carboxamide]	–	8.6%	significant reductions, near nontreated levels	–
66.7 ± 5.8 µM	O=C(O)/C=C/c1cc(-c2ccc3c(c2)OCO3)co1 [SMI-10B12, (E)-3-(4-(Benzo[d][1,3]dioxol-5-yl)furan-2-yl)acrylic Acid]	34.26%	–	most effective; also recorded: better at inhibiting pSTAT3, pAKT, pJNK, and pERK signaling	–
8.9 ± 2 µM	O=C(O)CCc1cc(-c2ccc(F)c(F)c2)c(-c2ccc3c(c2)OCO3)o1 [SMI-10B15, 3-(5-(Benzo[d][1,3]dioxol-5-yl)-4-(3,4-difluorophenyl)furan-2-yl)propanoic Acid]	75.05%	–	–	–
9.1 ± 1.5 µM	O=C(O)CCc1cc(-c2ccc3c(c2)OCO3)c(-c2ccc3c(c2)OCO3)o1 [SMI-10B14, 3-(4,5-Bis(benzo[d][1,3]dioxol-5-yl)furan-2-yl)propanoic Acid]	79.65%	–	most effective; also recorded: better at inhibiting pSTAT3, pAKT, pJNK, and pERK signaling	–
13.5 ± 2.5 µM	O=C(O)CCc1cc(-c2ccc(Cl)c(Cl)c2)c(-c2ccc3c(c2)OCO3)o1 [SMI-10B18, 3-(5-(Benzo[d][1,3]dioxol-5-yl)-4-(3,4-dichlorophenyl)furan-2-yl)propanoic Acid]	35.00%	–	–	–
46.2 ± 7.2 µM	O=C(O)c1cc(-c2ccc3c(c2)OCO3)c(-c2ccc3c(c2)OCO3)o1 [SMI-10I, 4,5-Bis(benzo[d][1,3]dioxol-5-yl)furan-2-carboxylic Acid]	–	45.9%	–	–
> 200 µM	OCc1cc(-c2ccc3c(c2)OCO3)c(-c2ccc3c(c2)OCO3)o1 [SMI-10H, (4,5-Bis(benzo[d][1,3]dioxol-5-yl)furan-2-yl)methanol]	–	61.1%	–	–

Continued, compound first:

SMILES	Kd (OSM)	Relative pSTAT3 Levels (Table 2, SMI-10B analogs) [1]	Relative pSTAT3 Levels (Table 1, SMI-10A-10J) [1]	Inhibition of OSM-mediated signaling cascades by immunoblot (words) [2]	Inhibition of OSM-mediated signaling cascades by immunoblot (words) ([2]; listed as 10B8)
O=C(O)/C=C/c1cc(-c2ccc3c(c2)OCO3)c(-c2ccc3c(c2)OCO3)[nH]1 [SMI-10B5, (E)-3-(4,5-Bis(benzo[d][1,3]dioxol-5-yl)-1H-pyrrol-2-yl)acrylic Acid]	9.2 ± 1.2 µM	19.89%	–	–	–
O=C(O)/C=C/c1cc(-c2ccccc2)c(-c2ccccc2)o1 [SMI-10B10, (E)-3-(4,5-Diphenylfuran-2-yl)acrylic Acid]	20.7 ± 1.9 µM	46.10%	–	–	–
O=C(O)/C=C/c1cc(-c2ccc3c(c2)OCO3)c(-c2ccccc2)o1 [SMI-10B9, (E)-3-(4-(Benzo[d][1,3]dioxol-5-yl)-5-phenylfuran-2-yl)acrylic Acid]	18.2 ± 2 µM	30.98%	–	–	–
O=C(O)/C=C/c1ccc(-c2ccc3c(c2)OCO3)o1 [SMI-10B11, (E)-3-(5-(Benzo[d][1,3]dioxol-5-yl)furan-2-yl)acrylic Acid]	20.1 ± 1.5 µM	42.43%	–	–	–
O=C(O)/C=C/c1cc(-c2ccc3c(c2)OCCO3)c(-c2ccc3c(c2)OCCO3)o1 [SMI-10B7, (E)-3-(4,5-Bis(2,3-dihydrobenzo[b][1,4]dioxin-6-yl)furan-2-yl)acrylic Acid]	6.6 µM and 6.64 µM	73.96%	–	–	–
COc1ccc(-c2cc(/C=C/C(=O)O)oc2-c2ccc(OC)c(O)c2)cc1O [SMI-10B2, (E)-3-(4,5-Bis(3-hydroxy-4-methoxyphenyl)furan-2-yl)acrylic Acid]	17.5 ± 1.2 µM	56.66%	–	–	–
COC(=O)c1cc(-c2ccc3c(c2)OCO3)c(-c2ccc3c(c2)OCO3)o1 [SMI-10A, Methyl 4,5-Bis(benzo[d][1,3]dioxol-5-yl)furan-2-carboxylate]	29.6 ± 5.6 µM	–	84.7%	–	–
Cn1c(/C=C/C(=O)O)cc(-c2ccc3c(c2)OCO3)c1-c1ccc2c(c1)OCO2 [SMI-10B6, (E)-3-(4,5-Bis(benzo[d][1,3]dioxol-5-yl)-1-methyl-1H-pyrrol-2-yl)acrylic Acid]	10 ± 1 µM	20.43%	–	–	–
O=C(O)/C=C/c1cc(-c2ccccc2)c(-c2ccc3c(c2)OCO3)o1 [SMI-10B8, (E)-3-(5-(Benzo[d][1,3]dioxol-5-yl)-4-phenylfuran-2-yl)acrylic Acid]	7.2 ± 0.8 µM	81.66%	–	most effective	better at inhibiting pSTAT3, pAKT, pJNK, and pERK signaling
COc1cc(-c2cc(/C=C/C(=O)O)oc2-c2ccc(O)c(OC)c2)ccc1O [SMI-10B3, (E)-3-(4,5-Bis(4-hydroxy-3-methoxyphenyl)furan-2-yl)acrylic Acid]	18.5 ± 1.7 µM	67.12%	–	–	–
O=C(O)/C=C/c1cc(-c2ccc3c(c2)OCO3)c(-c2ccc3c(c2)OCO3)s1 [SMI-10B4, (E)-3-(4,5-Bis(benzo[d][1,3]dioxol-5-yl)thiophen-2-yl)acrylic Acid]	21.2 ± 1.8 µM	17.98%	–	–	–
COc1ccc(-c2cc(/C=C/C(=O)O)oc2-c2ccc(OC)c(OC)c2)cc1OC [SMI-10B1, (E)-3-(4,5-Bis(3,4-dimethoxyphenyl)furan-2-yl)acrylic Acid]	18.4 ± 1.3 µM	62.35%	–	–	–

Reference: PMC12362618, “Development of the First Small-Molecule Inhibitor Targeting Oncostatin M for Treatment of Breast Cancer” (Journal of Medicinal Chemistry, 2025)
